Measurements from patent publication US20240327393A1 (SIRONAX LTD., priority 2021, published 2024).
Like-named read-outs stand apart in the source and are kept apart here.

Tested on: HT-1080 (ATCC, CCL-121) cells
Test: HT-1080 cell viability assay with ferroptosis inducer RSL3 (Cell Titer-Glo)
Assay type: cell-based
Conditions: HT-1080 cells treated with RSL3, 3-fold, 10-point dilution, 1.1 μM highest concentration, Table 3, read-out: EC50 (nM), ferroptosis inhibitory activity
Summary of the method: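 HT-1080 cells (6000 per well) were cultured overnight at 37 °C, then co-treated with RSL3 and compound in a 3-fold, 10-point series topping at 1.1 μM. Viability was read by CellTiter-Glo luminescence and normalized to untreated controls. EC50 came from a sigmoidal non-linear regression fit.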

EC50 (Homo sapiens) | EC50 | SMILES
0.1 to 100 nM |  | CC1CCN(c2ccc(Nc3ccc4c(c3)OCC(=O)N4)cc2)CC1 [Compound 507, 7-((4-(4-methylpiperidin-1-yl)phenyl)amino)-2H-benzo[b][1,4]oxazin-3(4H)-one]
0.1 to 100 nM |  | O=C1COc2cc(Nc3ccc(N4CCC(F)CC4)cc3)ccc2N1 [Compound 508, 7-((4-(4-fluoropiperidin-1-yl)phenyl)amino)-2H-benzo[b][1,4]oxazin-3(4H)-one]
0.1 to 100 nM |  | Cc1cc(N2CCC(O)(C(F)(F)F)CC2)ccc1Nc1ccc2c(c1)OCC(=O)N2 [Compound 509, 7-((4-(4-hydroxy-4-(trifluoromethyl)piperidin-1-yl)-2-methylphenyl)amino)-2H-benzo[b][1,4]oxazin-3(4H)-one]
0.1 to 100 nM |  | O=C1COc2cc(Nc3ccc(N4CCC(O)(C(F)(F)F)CC4)cc3)ccc2N1 [Compound 510, 7-((4-(4-hydroxy-4-(trifluoromethyl)piperidin-1-yl)phenyl)amino)-2H-benzo[b][1,4]oxazin-3(4H)-one]
0.1 to 100 nM |  | Cc1cc(N2CCC(O)(C(F)(F)F)CC2)ccc1Nc1cc(C)c2c(c1)OCC(=O)N2 [Compound 511, 7-((4-(4-hydroxy-4-(trifluoromethyl)piperidin-1-yl)-2-methylphenyl)amino)-5-methyl-2H-benzo[b][1,4]oxazin-3(4H)-one]
0.1 to 100 nM |  | Cc1cc(N2CCC(C(F)(F)F)CC2)ccc1Nc1cc2c(cc1C)NC(=O)CO2 [Compound 512, 6-methyl-7-((2-methyl-4-(4-(trifluoromethyl)piperidin-1-yl)phenyl)amino)-2H-benzo[b][1,4]oxazin-3(4H)-one]
0.1 to 100 nM |  | Cc1cc(N2CCC(C(F)(F)F)CC2)ccc1Nc1ccc2[nH]c(=O)[nH]c2c1 [Compound 513, 5-((2-methyl-4-(4-(trifluoromethyl)piperidin-1-yl)phenyl)amino)-1,3-dihydro-2H-benzo[d]imidazol-2-one]
0.1 to 100 nM |  | Cc1cc(N2CCC(C(F)(F)F)CC2)ccc1Nc1ccc2c(c1)C(C)(C)C(=O)N2 [Compound 514, 3,3-dimethyl-5-((2-methyl-4-(4-(trifluoromethyl)piperidin-1-yl)phenyl)amino)indolin-2-one]
 | 0.1 to 100 nM | Cc1cc(N2CCC(C(F)(F)F)CC2)ccc1Nc1ccc2c(c1)OCC(=O)N2 [Compound 515, 7-((2-methyl-4-(4-(trifluoromethyl)piperidin-1-yl)phenyl)amino)-2H-benzo[b][1,4]oxazin-3(4H)-one]
0.1 to 100 nM |  | COc1cc(N2CCC(C(F)(F)F)CC2)ccc1Nc1ccc2c(c1)OCC(=O)N2 [Compound 516, 7-((2-methoxy-4-(4-(trifluoromethyl)piperidin-1-yl)phenyl)amino)-2H-benzo[b][1,4]oxazin-3(4H)-one]
0.1 to 100 nM |  | O=C1COc2cc(Nc3ccc(N4CCCCC4)cc3)ccc2N1 [Compound 517, 7-(4-(piperidin-1-yl)phenylamino)-2H-benzo[b][1,4]oxazin-3(4H)-one]
0.1 to 100 nM |  | Cc1cc(N2CCC(F)CC2)ccc1Nc1ccc2c(c1)OCC(=O)N2 [Compound 518, 7-((4-(4-fluoropiperidin-1-yl)-2-methylphenyl)amino)-2H-benzo[b][1,4]oxazin-3(4H)-one]
0.1 to 100 nM |  | Cc1cc(N2CC(C)N(CC(F)(F)F)C(C)C2)ccc1Nc1ccc2c(c1)OCC(=O)N2 (stereo not drawn) [Compound 519, 7-((4-(3,5-dimethyl-4-(2,2,2-trifluoroethyl)piperazin-1-yl)-2-methylphenyl)amino)-2H-benzo[b][1,4]oxazin-3(4H)-one]
0.1 to 100 nM |  | Cc1nc(N2CC(C)OC(C)(C)C2)ccc1Nc1ccc2c(c1)OCC(=O)N2 (stereo not drawn) [Compound 520, 7-((2-methyl-6-(2,2,6-trimethylmorpholino)pyridin-3-yl)amino)-2H-benzo[b][1,4]oxazin-3(4H)-one]
0.1 to 100 nM |  | Cc1nc(N2CCN(CC(F)(F)F)CC2)ccc1Nc1ccc2c(c1)OCC(=O)N2 [Compound 521, 7-((2-methyl-6-(4-(2,2,2-trifluoroethyl)piperazin-1-yl)pyridin-3-yl)amino)-2H-benzo[b][1,4]oxazin-3(4H)-one]
